Assay results reported in patent US4608373A, “Cephem compounds” (Yamanouchi Pharmaceutical Co., Ltd., priority 1982, dated 1986).
Converted amounts (≈) assume the structure as drawn. Structures can show the parent of a compound that is named as a salt.

Legend:
Format in all cases: cell-based
Staph. aureus Terashima = assay: Antibacterial activity (MIC), Staph. aureus Terashima; conditions: Staphylococcus aureus, read-out: MIC (minimum effective inhibitory concentration)
Text: (§1) Antibacterial activities (minimum effective inhibitory concentrations) of the compounds of formula I are shown in the following table in comparison with those of cefatazidime having the structure [drawing 5] and cefmenoxime having the structure [drawing 6]

[1] = system: Ent. aerogenes ATCC 13048 (MS-1); assay: Antibacterial activity (MIC), Ent. aerogenes ATCC 13048 (MS-1); conditions: Klebsiella aerogenes, ATCC13048, read-out: MIC (minimum effective inhibitory concentration)
Text: as §1

Proteus morgani IID 602 = assay: Antibacterial activity (MIC), Proteus morgani IID 602; conditions: Proteus morgani IID 602; read-out: MIC (minimum effective inhibitory concentration)
Text: as §1

Staph. aureus Smith = assay: Antibacterial activity (MIC), Staph. aureus Smith; conditions: Staphylococcus aureus, read-out: MIC (minimum effective inhibitory concentration)
Text: as §1

Ps. aeruginosa IID 5142 = assay: Antibacterial activity (MIC), Ps. aeruginosa IID 5142; conditions: Pseudomonas aeruginosa, IID5142, read-out: MIC (minimum effective inhibitory concentration)
Text: as §1

[2] = system: Ps. aeruginosa NCTC 10490; assay: Antibacterial activity (MIC), Ps. aeruginosa NCTC 10490; conditions: Pseudomonas aeruginosa, NCTC10490, read-out: MIC (minimum effective inhibitory concentration)
Text: as §1

E. coli Ebara = assay: Antibacterial activity (MIC), E. coli Ebara; conditions: Escherichia coli; E. coli Ebara; read-out: MIC (minimum effective inhibitory concentration)
Text: as §1

Ent. cloacae V-8 = assay: Antibacterial activity (MIC), Ent. cloacae V-8; conditions: Enterobacter cloacae, V8, read-out: MIC (minimum effective inhibitory concentration)
Text: as §1

Staph. aureus ATCC 6538P = assay: Antibacterial activity (MIC), Staph. aureus ATCC 6538P; conditions: Staphylococcus aureus, ATCC6538P, read-out: MIC (minimum effective inhibitory concentration)
Text: as §1

[3] = system: Kleb. pneumoniae ATCC 10031; assay: Antibacterial activity (MIC), Kleb. pneumoniae ATCC 10031; conditions: Klebsiella pneumoniae, ATCC10031, read-out: MIC (minimum effective inhibitory concentration)
Text: as §1

Serr. marcescens IID 620 = assay: Antibacterial activity (MIC), Serr. marcescens IID 620; conditions: Serratia marcescens, IID620; Serr. marcescens IID 620; read-out: MIC (minimum effective inhibitory concentration)
Text: as §1

Row | Structure (SMILES) | MIC (Staph. aureus Terashima) | MIC [1] | MIC (Proteus morgani IID 602) | MIC (Staph. aureus Smith) | MIC (Ps. aeruginosa IID 5142) | MIC [2] | MIC (E. coli Ebara) | MIC (Ent. cloacae V-8) | MIC (Staph. aureus ATCC 6538P) | MIC [3] | MIC (Serr. marcescens IID 620)
1 | Nc1nc(CO/N=C(\C(=O)NC2C(=O)N3C(C(=O)[O-])=C(C[n+]4cccc(S(=O)(=O)O)c4)CSC23)c2csc(N)n2)cs1 (stereo not drawn) [Example 17, (Z)-7-{α-(2-amino-4-thiazolyl)-α-[(2-amino-4-thiazolyl)methoxyimino]acetamido}-3-(3-sulfonate-1-pyridiniomethyl)-3-cephem-4-carboxylate mono-sodium salt] | 12.5 µg/mL | 3.13 µg/mL | 1.56 µg/mL | 6.25 µg/mL | 25 µg/mL | 1.56 µg/mL | 12.5 µg/mL | 6.25 µg/mL | 6.25 µg/mL | 0.39 µg/mL | 0.39 µg/mL
2 | Nc1nc(CO/N=C(\C(=O)NC2C(=O)N3C(C(=O)[O-])=C(C[n+]4cccc(NC=O)c4)CS[C@H]23)c2csc(N)n2)cs1 (stereo partly drawn) [Example 18, (Z)-7-{α-(2-amino-4-thiazolyl)-α-[(2-amino-4-thiazolyl)methoxyimino]acetamido}-3-(3-formamido-1-pyridiniomethyl)-3-cephem-4-carboxylate] | 1.56 µg/mL (≈ 2.53 µM) | 1.56 µg/mL (≈ 2.53 µM) | 0.78 µg/mL (≈ 1.27 µM) | 0.78 µg/mL (≈ 1.27 µM) | 6.25 µg/mL (≈ 10.2 µM) | 0.39 µg/mL (≈ 0.633 µM) | 0.78 µg/mL (≈ 1.27 µM) | 3.13 µg/mL (≈ 5.08 µM) | 0.78 µg/mL (≈ 1.27 µM) | ≤ 0.2 µg/mL | 0.39 µg/mL (≈ 0.633 µM)
3 | Nc1ccc[n+](CC2=C(C(=O)[O-])N3C(=O)C(NC(=O)/C(=N\OCc4csc(N)n4)c4csc(N)n4)[C@H]3SC2)c1 (stereo partly drawn) [Example 19, (Z)-7-{α-(2-amino-4-thiazolyl)-α-[(2-amino-4-thiazolyl)methoxyimino]acetamido}-3-(3-amino-1-pyridiniomethyl)-3-cephem-4-carboxylate] | 0.78 µg/mL (≈ 1.33 µM) | 1.56 µg/mL (≈ 2.65 µM) | 0.78 µg/mL (≈ 1.33 µM) | 0.78 µg/mL (≈ 1.33 µM) | 6.25 µg/mL (≈ 10.6 µM) | 0.78 µg/mL (≈ 1.33 µM) | 0.39 µg/mL (≈ 0.664 µM) | 3.13 µg/mL (≈ 5.33 µM) | 0.78 µg/mL (≈ 1.33 µM) | ≤ 0.2 µg/mL | ≤ 0.2 µg/mL
4 | Nc1nc(CO/N=C(\C(=O)NC2C(=O)N3C(C(=O)[O-])=C(C[n+]4cccc(C(=O)NCC(=O)O)c4)CSC23)c2csc(N)n2)cs1 (stereo not drawn) [Example 20, (Z)-7-{α-(2-amino-4-thiazolyl)-α-[(2-amino-4-thiazolyl)methoxyimino]acetamido}-3-{3-[N-(carboxylatemethyl)carbamoyl]-1-pyridiniomethyl}-3-cephem-4-carboxylate mono-sodium salt] | 12.5 µg/mL | 3.13 µg/mL | 1.56 µg/mL | 6.25 µg/mL | 25 µg/mL | 1.56 µg/mL | 6.25 µg/mL | 12.5 µg/mL | 6.25 µg/mL | 0.39 µg/mL | ≤ 0.2 µg/mL
5 | Nc1cc[n+](CC2=C(C(=O)[O-])N3C(=O)C(NC(=O)/C(=N\OCc4csc(N)n4)c4csc(N)n4)[C@H]3SC2)cc1 (stereo partly drawn) [Example 21, 7-{α-(2-amino-4-thiazolyl)-α-[(2-amino-4-thiazolyl)methoxyimino]acetamido}-3-(4-amino-1-pyridiniomethyl)-3-cephem-4-carboxylate] | 0.39 µg/mL (≈ 0.664 µM) | 0.78 µg/mL (≈ 1.33 µM) | 0.39 µg/mL (≈ 0.664 µM) | 0.39 µg/mL (≈ 0.664 µM) | 6.25 µg/mL (≈ 10.6 µM) | 0.39 µg/mL (≈ 0.664 µM) | ≤ 0.2 µg/mL | 1.56 µg/mL (≈ 2.65 µM) | 0.39 µg/mL (≈ 0.664 µM) | ≤ 0.2 µg/mL | ≤ 0.2 µg/mL
6 | Nc1nc(CO/N=C(\C(=O)NC2C(=O)N3C(C(=O)[O-])=C(C[n+]4cccc(CNC=O)c4)CS[C@H]23)c2csc(N)n2)cs1 (stereo partly drawn) [Example 22, (Z)-7-{α-(2-amino-4-thiazolyl)-α-[(2-amino-4-thiazolyl)methoxyimino]acetamido}-3-(3-formamidomethyl-1-pyridiniomethyl)-3-cephem-4-carboxylate] | 3.13 µg/mL (≈ 4.97 µM) | 3.13 µg/mL (≈ 4.97 µM) | 1.56 µg/mL (≈ 2.48 µM) | 1.56 µg/mL (≈ 2.48 µM) | 12.5 µg/mL (≈ 19.9 µM) | 1.56 µg/mL (≈ 2.48 µM) | 1.56 µg/mL (≈ 2.48 µM) | 6.25 µg/mL (≈ 9.93 µM) | 1.56 µg/mL (≈ 2.48 µM) | ≤ 0.2 µg/mL | 0.78 µg/mL (≈ 1.24 µM)
7 | Nc1nc(CON=C(C(=O)NC2C(=O)N3C(C(=O)[O-])=C(C[n+]4ccc(C(=O)NO)cc4)CS[C@H]23)c2csc(N)n2)cs1 (stereo partly drawn) [Example 23, (Z)-7-{α-(2-amino-4-thiazolyl)-α-[(2-amino-4-thiazolyl)methoxyimino]acetamido}-3-(4-hydroxycarbamoyl-1-pyridiniomethyl)-3-cephem-4-carboxylate] | 3.13 µg/mL (≈ 4.96 µM) | 1.56 µg/mL (≈ 2.47 µM) | 0.78 µg/mL (≈ 1.23 µM) | 6.25 µg/mL (≈ 9.89 µM) | 6.25 µg/mL (≈ 9.89 µM) | 0.39 µg/mL (≈ 0.617 µM) | 0.39 µg/mL (≈ 0.617 µM) | 3.13 µg/mL (≈ 4.96 µM) | 3.13 µg/mL (≈ 4.96 µM) | ≤ 0.2 µg/mL | 0.39 µg/mL (≈ 0.617 µM)
